# Experimental data taken from a melting point compilation (Tetko et al.; mined from patent text by program, amines drawn as free bases though some values may be those of a salt).
row,melting point,Compound
1,169 to 170 °C,CC(=O)NC[C@H]1CN(c2ccc(N3CCN(CCN4CCCCC4)CC3)c(F)c2)C(=O)O1
2,130 °C,COc1cc(C(CCl)(OC)OC)ccc1OS(=O)(=O)c1ccccc1
3,198 to 200 °C,C/C(=C\C(N)=O)c1ccc2c(c1)C(C)(C)OC(=O)N2
4,127 to 135 °C,C#CCn1c(=O)[nH]c(=O)n(-c2cc(N3C(=O)C4=C(CCCC4)C3=O)c(F)cc2Cl)c1=O
5,79.5 °C,CC(C)(C)OC(=O)N1CCN2C(=O)N(c3cc(Cl)cc(Cl)c3)C(=O)C2(Cc2ccc(Br)cc2)C1 (centres undefined)
6,62 to 64 °C,CCOC(=O)COc1ccc(OCc2ccccc2)cc1OCc1ccccc1
7,151 to 153 °C,CCCCOc1ccc2c(O)c(C(=O)NCC(=O)O)ncc2c1
8,256 to 258 °C,O=c1[nH]c2cccnc2n1-c1ccc2c(c1)OCO2
9,166 to 168 °C,CC1(C)CCCC2(C)CC12/C=C/C(=O)N1CCN(C(N)=O)CC1 (centres undefined)
10,118 to 119 °C,CCCCOc1c(CNC(=O)OC(C)(C)C)n(CC2CC2)c(=O)c2ccc(Br)cc12
11,119 to 120 °C,CC(=O)Cc1ccc(O)cn1
12,40 to 41 °C,CCCCCCCCCCCCCCCC(=O)CC(=O)OC
13,114 to 116 °C,CC(c1ccccc1)N1CC(CF)(C(=O)NCc2ccccc2)CC1=O (centres undefined)
14,160 to 162 °C,CNc1nc(C)cc(-n2ccc3ccccc32)n1
15,114 °C,O=C(O)C(Cl)(Cl)CCCCCCCCCCCCC(Cl)(Cl)C(=O)O
16,134 to 135 °C,CC(C)c1cccc(C(C)C)c1NC(=O)CNC(c1ccccn1)c1ccccn1
17,244 to 246 °C,CC(C)(C)c1cc(-n2nc3c(Br)ccc(Br)c3n2)c(O)c(C(C)(C)C)c1
18,40 to 42 °C,C=Cc1ccc(C(C#N)C#N)cc1
19,145 to 146 °C,CC(C)C[C@H](N)C(=O)NCCCCCNC(=O)OCc1ccccc1
20,145 to 148 °C,Cc1ccc(Br)cc1NC(=O)NCCCNCCCCl
21,108 °C,Cc1cc(C(=O)N2Cc3ccc(C(=O)N4CCN(C)CC4)n3Cc3ccccc32)ccc1C1=CCCc2ccccc21
22,136 to 138 °C,CCC(Oc1ccccc1F)C(=O)OC1CC(O)C=C2C=CC(C)C(CCC3CC(O)CC(=O)O3)C21 (mixture of isomers)
23,158 to 159 °C,Cc1ncnn1-c1cc(F)ccc1CNC(=O)c1nc2n(c(=O)c1OCc1ccccc1)CCN2C(C)C
24,134 to 136 °C,Cn1cc(-c2cc(-c3c[nH]nc3-c3ccccn3)ccc2F)cn1

row,melting point,Compound
1,133 to 134 °C,CCOC(=O)c1ccc(-c2ccc(C#N)cc2)s1
2,149 to 150 °C,O=C(O)CCc1cn(Cc2ccc(OCc3csc(-c4ccncc4)n3)cc2)cc1-c1ccccc1
3,227 to 229 °C,O=C(Cn1c(-c2ccc(Cl)cc2)nc2cccnc21)NC1=NCCS1
4,205 to 207 °C,Cc1cccc(N2CCN([C@@H](Cc3ccc(OCCc4nc(-c5ccccc5)oc4C)cc3)C(=O)O)CC2)c1
5,192 to 193 °C,O=c1[nH][nH]c(=O)n1CCCl
6,102 to 104 °C,CS(=O)(=O)CCNc1nccc(Oc2ccc(NC(=O)c3cc(F)cc(N4CCCCC4)c3)c3ccccc23)n1
7,229 to 230 °C,Brc1cccc(Nc2ncnc3cc4c(cc23)OC(CN2CCOCC2)CO4)c1 (centres undefined)
8,147 to 149 °C,COc1ccc(N2C[C@](C)(COc3ccc(C#N)cc3)OC2=O)cc1
9,102 °C,CC(C)Oc1cc(-n2c(Cl)nc(C(F)(F)F)cc2=O)c(F)cc1Br
10,202 to 204 °C,O=C(O)CCCCCN1C(=O)c2ccc(C(=O)O)cc2C1=O
11,90 to 93 °C,CCOC(Cc1ccc(OCCN2C(=O)COc3ccccc32)cc1)C(=O)O (centres undefined)
12,193 to 195 °C,COc1ccc(Cl)cc1C1(F)C(=O)Nc2ccc(C)cc21 (centres undefined)
13,239 to 241 °C,COc1ncccc1Nc1c(NC(NC(=O)c2ccc(Cl)cc2)C(C)(C)C)c(=O)c1=O (centres undefined)
14,153 to 154 °C,CSc1ccc(-c2coc3ccc(-c4nnc(C)o4)cc23)c(Cl)c1
15,168 to 171 °C,O=C(O)CCCCc1ccc2cncn2c1
16,162 to 164 °C,C(=Cc1ccccc1)C=Nc1ccc(Cc2ccc(N=CC=Cc3ccccc3)cc2)cc1
17,168 to 170 °C,C=C1C(=O)NC(=O)N1c1ccccc1
18,124 to 127 °C,COC(=O)c1ccc(OCCCNc2ccc3c(c2)OCO3)cc1
19,212 to 214 °C,CC1(C)CCC(C)(C)c2cc3c(cc21)CCC=C3Cc1ccc(C(=O)O)cc1
20,55 to 56 °C,O=[N+]([O-])c1cc(Cl)ccc1-n1cccc1
21,128 to 131 °C,CCN(C(=O)OC)c1c(C(=O)c2cnoc2C2CC2)ccc(S(C)(=O)=O)c1Cl
22,97 to 98 °C,CCOC(=O)c1ccc2c(c1)N(CCN(C)C)C(=O)c1cc(C(C)C)cc(C(C)C)c1O2
23,138 to 139 °C,CC(=O)NCCCCCNc1ccc(NCCN(C)C)c2c1C(=O)c1ccccc1C2=O
24,42 °C,CCCCCCCCCCCCCCCCCCOC(=O)C=CC(=O)OCC

row,melting point,Compound
1,121 to 123 °C,COC(Cc1ccc(OCCN(C)c2nc3ccccc3o2)cc1)C(=O)O (centres undefined)
2,130 °C,CN(C)C=NS(=O)(=O)c1cc(CCNC(=O)C(F)(F)F)ccc1OCC(F)(F)F
3,121 to 122 °C,COc1ccc(C2=NC(C#N)CN2c2ccc(OCc3ccccc3)cc2)cc1 (centres undefined)
4,220 to 222 °C,CCCCn1c(COCC)nc2c(N)nc3ccc(-c4cccnc4)cc3c21
5,169 to 171 °C,O=C1[C@H]2CCC[C@H]2Nc2ccccc2N1Cc1cccc([N+](=O)[O-])c1 (relative stereo)
6,60 to 60.5 °C,C=CCOc1ccccc1OCC=Cc1ccc(OC)c(OC)c1
7,125 to 126 °C,CCOC(=O)c1c(CCl)nc2sc3c(c2c1-c1ccc(OC)c(OC)c1)CN(C(=O)OCc1ccccc1)CC3
8,212 to 214 °C,O=c1cc(C(F)(F)F)c2c(O)cc(O)cc2o1
9,185 to 186 °C,Cn1nnnc1C(C=O)=C(c1ccccc1)c1ccccc1
10,137 to 138 °C,NC(=O)c1ccccc1N1CCc2cc(Cl)ccc21
11,68 °C,O=C(Cc1ccccc1Nc1c(Cl)cccc1Cl)OCCOCCOCCO[N+](=O)[O-]
12,189 to 191 °C,COc1cnc(CSc2nc3cc4c(cc3[nH]2)OC(F)(F)O4)cc1OC
13,156 to 157 °C,Cc1oc(-c2ccc(C(F)(F)F)cc2)nc1COc1cc(F)cc(CN(O)C(N)=O)c1
14,133 to 136 °C,CC(C)(C)c1cc(Cc2nc3cc(Cl)cc(Br)c3o2)cc(C(C)(C)C)c1O
15,178 to 183 °C,CNC(=O)c1ccccc1Nc1nc(Nc2ccc3c(c2)CCN(CCOC)CC3)ncc1Cl
16,126 °C,CC(C)(C)c1ccc(Cn2[nH]c(N)cc2=O)cc1
17,273 °C,CC(C)(C)c1ccccc1N1CCN(C(=O)C2CCC(=O)N2CC(=O)O)CC1 (centres undefined)
18,254 to 255 °C,Cc1cc(Cl)cc(C(=O)c2[nH]c(=O)[nH]c(=O)c2C(C)C)c1
19,170 to 172 °C,Cc1scnc1-c1ccc(-c2cc(C(F)(F)F)nn2-c2ccc(S(C)(=O)=O)c(F)c2)cc1
20,180 °C,Cc1csc2nc3ccccc3c(=O)n12
21,191 to 193 °C,CN(CCN(C)S(=O)(=O)c1ccc(F)cc1)C(=O)c1ccc(Nc2ccnc3cc(C(F)(F)F)ccc23)cc1
22,180 to 182 °C,"COc1cc2c(cc1OC)-c1c(OC)c(OC)cc3c1C(C2)N(C)CC3O (single isomer, unassigned; (+))"
23,102 to 106 °C,COCCOc1ccc(/C=C/C(=O)NS(=O)(=O)c2ccc(C)cc2)c(Oc2ncc(C(F)(F)F)cc2Cl)c1
24,109 °C,CCC1CC(=O)N(Cc2ccc(N)cc2)N=C1c1ccc(OC)c(OC2CCCC2)c1 (centres undefined)

row,melting point,Compound
1,62 to 64 °C,CCOC(=O)c1cc(C#N)c(C=O)nc1N1CCCCC1
2,167 to 168 °C,CC1(Cc2ccccc2)Cc2cc(OCC(=O)O)c(Cl)c(Cl)c2C1=O (centres undefined)
3,206 to 208 °C,CCCC1(CC(=O)O)OCC(=O)c2c1[nH]c1ccccc21 (centres undefined)
4,175 to 176 °C,CC(=O)N[C@@H](CSc1ccccc1[N+](=O)[O-])C(=O)O
5,256 to 258 °C,CCOC(=O)c1ncc2[nH]c3ccc(N)cc3c2n1
6,180 °C,C=CCC1(C)Cc2cc(O)c(Cl)c(Cl)c2C1=O (centres undefined)
7,129 to 130 °C,c1ccc(N2CCN(c3nn(-c4ccccc4)c4ccccc34)CC2)cc1
8,245 to 248 °C,CCn1cc(C(=O)O)c(=O)c2cc(F)c(C)c(F)c21
9,101 °C,CCCCCC1CCc2c(c(F)c(F)c3oc(C4CCC(CCC)CC4)cc23)O1 (centres undefined)
10,171 °C,COc1ccccc1N1Sc2ccccc2CC1=O
11,108 to 110 °C,c1ccc(N=C2CCCCN2)c(CN2CCOCC2)c1
12,152 to 153 °C,CC1(C)CCc2c1ccc1c2CCc2cc(O)ccc2-1
13,63 °C,CN1CCCC1=Cc1ccc(Cl)cc1
14,190 to 193 °C,Cc1oc2ccccc2c1C(=O)N(Cc1ccccc1)Cc1ccc2cc(O)ccc2c1
15,185 to 190 °C,COc1cc(Cl)cc(COc2cccc(OCc3ccc4ccccc4n3)c2)c1OCC(=O)O
16,205 to 206 °C,Clc1ccc2c(c1)-c1[nH]ncc1CS2
17,94 to 96 °C,Cn1cc(-c2cccc(F)c2)c(=O)c(-c2cccc(C(F)(F)F)c2)c1
18,> 250 °C,Cc1cccc(C)c1-c1cccc2c1CC(CN)O2 (centres undefined)
19,152 to 153 °C,Cc1cccc(C(C)(C)CC(O)(C(=O)Nc2ccc3c(c2)COC3=O)C(F)(F)F)c1 (centres undefined)
20,90 to 92 °C,Cc1nc(C(O)(c2ccsc2)C(F)(F)F)sc1C (centres undefined)
21,106 to 108 °C,CCCCCCCC/C=C\CCCCCCCC(=O)Nc1nc(CC(=O)O)cs1
22,150 to 151 °C,O=C(NCCO)c1cccc(-c2cccc3nn(Cc4cccc(C(F)(F)F)c4)cc23)n1

row,Compound,melting point
1,O=C(NC1N=C(c2ccccc2)c2ccccc2NC1=O)c1ccc(-c2ccccc2)cc1 (racemic),274 to 276 °C
2,N#Cc1ccc(NC(=O)NC(=O)c2ccccc2F)c(Cl)c1Cl,298 to 300 °C
3,COc1ccc(C(=O)P2(=O)Oc3ccccc3-c3ccccc32)c(OC)c1 (centres undefined),112 to 115 °C
4,CN1CC(C(=O)CO)CC2c3cccc4[nH]cc(c34)CC21 (centres undefined),202 to 203 °C
5,CCC(C(OC)OC)N(C1CCCCC1)C1CCCCC1 (centres undefined),73.5 to 74.2 °C
